Several values for one entry are separate records, joined by “and”; a condition that tells them apart may be missing. Equal entries are not always repeated.
Tests used:
CYP2E1 = CYP2E1 (Homo sapiens, UniProt P05181); settings: read-out: Literature IC50 value, CYP2E1; Chlorzoxazone-6-hydroxylation; positive control inhibitor; unit inferred; cited from earlier work
[1] = tested on: MPTP induced cell death in the SN; experiment: Parkinson's disease in vivo: MPTP model; parameters: species or system mouse; settings: MPTP mice
[2] = tested on: 6-OHDA lesion of the SNpc; experiment: Parkinson's disease in vivo: 6-OHDA model; parameters: species or system mouse; settings: 6-OHDA lesioned mice, dose not given; for Behaviour (Rotation) % SSV: SSV = 0%
Description: Parkinson's Disease In Vivo Technique: 6-OHDA Model
Preparation of the toxin 6-OHDA (1.65 mg/mL, Sigma Cat# H-4381):
6-OHDA toxin is dissolved in ascorbic acid solution (0.2 mg/mL in dH2O), store in dark on ice. To increase the speed of anaesthesia and reduce stress to the mouse, there is premedication with atropine (0.5 mg/kg) and xylazine (10 mg/kg) is injected subcutaneously via a 27 gauge needle).
To Prepare the Lesion Needle to Inject 6-OHDA:
PBS is sucked up into the line (ensure no air bubbles) with up to […] in a Hamilton syringe. Syringe is placed the in the Kd Scientific syringe pump and secured. Pump is turned the on and syringe is loaded into the pump. Pump volume is set at […] and the rate is set at 0.5 ml/min. The lesion needle is positioned so that the bevelled (eye) of the needle is at a 45° angle from the midline and tightened to secure the needle. Pump is run and checked for fluid coming out.
3-4% isoflurane is carried by oxygen to induce anaesthesia and 1-2% for maintenance of anaesthesia. Animal is placed in small induction chamber and subjected to a few minutes of 4% isoflurane in oxygen at a flow rate of approx 1 l/min. Mouse is then placed in stereotaxic frame. The anaesthetic tube is disconnected from induction box and isoflurane reduced to 2% conc and oxygen flow rate to approx […]. Tube is connected to the nose piece attached to stereotaxic frame so that anaesthetic gas can be constantly administered during surgery. LHS ear bar is screwed at approx 3 mm. RHS ear bar is screwed in until there is no sideways head movement (about 5 mm). Front incisors are placed over the mouthguard and put nose-guard on (3 mm below 0). Mouthguard is screwed into place and ensured the top of the mouse's head is level (re-check this once the animal's skull is exposed).
Using a scalpel (size 4, blade 22), the scalp is cut down the centreline of the mouse's head to expose the skull. Typically 10-15 mm. The surface of the skull is dried with a cotton bud. Drill hole is measured with a ruler 3 mm posterior from Bregma and between 1 and 1.5 mm laterally from the centre line. The skull is drilled into this position until the surface of the brain is exposed.
6-OHDA is sucked up to fill approximately 15 cm of the line and the syringe. Fluid is ensured to be coming out of needle. The bevelled of the needle is aligned over the centreline where Bregma crosses, viewed by Motik dissecting microscope. The needle is ensured to be a few mm above the skull before positioning. Frame is moved 2.9 mm in a posterior direction and 1.1 mm (11 small notches) laterally to the right (for RHS injections) from the starting coordinates at Bregma. Needle is moved down until the tip of the needle just touches the surface of the brain.
Needle is lowered to the required depth of 4.6 mm and brain is allowed to settle for 2 min.
[…] of toxin is injected into the RHS SNpc, taking 4 min. 2 min is allowed to ensure the toxin disperses. Needle is withdrawn and antiseptic applied to the wound, with suture or superglue to close.
Mouse is wrapped in a piece of tissue and placed in a warm recovery box (on a heat pad) with water bottles (50 ml tubes) warmed to 50 C. Panadol® syrup is added to mouse's water bottle.
Rotation is recorded by the Computer based Rotacount system—(Columbus Instruments, Columbus, Ohio, USA). The system comprised of 8 bowls with sensors connected to a computer which measures incremental turns (90 degrees and full turns 360 degrees) either clockwise or counter clockwise. The sensors are positioned above the centre of each bowl about 30 cm above each. Tubing and a thin empty plastic pipette are attached so that the sensor is now extended to with a few cm of the base of the bowl.
Mice are placed individually into the eight bowls. Mice are secured to the pipettes via a cable tie and tape. […]

Sequence of CYP2E1 (P05181 whole entry): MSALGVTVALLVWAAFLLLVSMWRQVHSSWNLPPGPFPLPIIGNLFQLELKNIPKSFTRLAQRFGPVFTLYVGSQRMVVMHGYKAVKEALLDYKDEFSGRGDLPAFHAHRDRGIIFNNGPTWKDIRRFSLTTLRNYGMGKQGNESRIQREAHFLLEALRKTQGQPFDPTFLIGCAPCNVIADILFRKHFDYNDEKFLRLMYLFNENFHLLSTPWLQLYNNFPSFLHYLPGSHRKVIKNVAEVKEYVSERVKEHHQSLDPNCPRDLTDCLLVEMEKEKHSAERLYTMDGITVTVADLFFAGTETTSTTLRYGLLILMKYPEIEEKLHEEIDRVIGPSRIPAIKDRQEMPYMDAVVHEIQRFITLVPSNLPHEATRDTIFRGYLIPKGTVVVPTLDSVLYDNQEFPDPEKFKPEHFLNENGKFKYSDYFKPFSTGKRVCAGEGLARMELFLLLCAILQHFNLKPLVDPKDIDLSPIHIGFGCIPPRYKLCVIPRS

SMILES | IC50 (CYP2E1) | Behaviour Pole Test, % (SSV = 0%) ([1]; L-DOPA 20 mg/kg) | Behaviour Pole Test, value ± SD ([1]; L-DOPA 20 mg/kg) | SN cell counts % of SSV ([1]; L-DOPA 20 mg/kg) | SN cell counts (cells +/− SD) ([1]; L-DOPA 20 mg/kg) | Behaviour (Rotation) % SSV [2] | Behaviour (Rotation) total turns/h ± SD [2] | SN cell counts % of SSV (SSV = 0%) [2] | SN cell counts (cells ± SD) [2] | Behaviour Pole Test, % (SSV = 0%) ([1]; Selegiline 1 mg/kg) | Behaviour Pole Test, value ± SD ([1]; Selegiline 1 mg/kg) | SN cell counts % of SSV ([1]; Selegiline 1 mg/kg) | SN cell counts (cells +/− SD) ([1]; Selegiline 1 mg/kg)
N[C@@H]1C[C@H]1c1ccccc1 (racemic) [Tranylcypromine] | 8.94 µM |  |  |  |  |  |  |  |  |  |  |  | 
N[C@@H](Cc1ccc(O)c(O)c1)C(=O)O [L-DOPA, L-3,4-dihydroxyphenylalanine] |  | −205.29% | (8.91 ± 5.25) | 10.39% and 4.50% | 1935 ± 296 cells and 2015.91 ± 729.87 cells | 52.26% | (123.67 ± 80.90) turns/h | 1.73% | (1953.78 ± 280.21) cells |  |  |  | 
C#CCN(C)[C@H](C)Cc1ccccc1 [Selegiline, reference compound] |  |  |  |  |  | 71.13% | (74.80 ± 57.95) turns/h | 0.43% | (1928.89 ± 301.77) cells | −198.93% | (8.73 ± 7.95) | 39.2% | (2754.62 ± 461.23) cells

— patent US9145375B2, “Quinazolinone compounds” (PRANA BIOTECHNOLOGY LIMITED, priority 2008, dated 2015)
